Test results taken from PMC3297713 (Journal of Medicinal Chemistry, 2012).

What was measured:
full-length human ERα = target: T1, full-length human ERα (Homo sapiens, UniProt P03372); experiment: 3X-ERE luciferase reporter gene assay in HepG2 cells, ERα; type: cell-based
T1 sequence (P03372 1-595): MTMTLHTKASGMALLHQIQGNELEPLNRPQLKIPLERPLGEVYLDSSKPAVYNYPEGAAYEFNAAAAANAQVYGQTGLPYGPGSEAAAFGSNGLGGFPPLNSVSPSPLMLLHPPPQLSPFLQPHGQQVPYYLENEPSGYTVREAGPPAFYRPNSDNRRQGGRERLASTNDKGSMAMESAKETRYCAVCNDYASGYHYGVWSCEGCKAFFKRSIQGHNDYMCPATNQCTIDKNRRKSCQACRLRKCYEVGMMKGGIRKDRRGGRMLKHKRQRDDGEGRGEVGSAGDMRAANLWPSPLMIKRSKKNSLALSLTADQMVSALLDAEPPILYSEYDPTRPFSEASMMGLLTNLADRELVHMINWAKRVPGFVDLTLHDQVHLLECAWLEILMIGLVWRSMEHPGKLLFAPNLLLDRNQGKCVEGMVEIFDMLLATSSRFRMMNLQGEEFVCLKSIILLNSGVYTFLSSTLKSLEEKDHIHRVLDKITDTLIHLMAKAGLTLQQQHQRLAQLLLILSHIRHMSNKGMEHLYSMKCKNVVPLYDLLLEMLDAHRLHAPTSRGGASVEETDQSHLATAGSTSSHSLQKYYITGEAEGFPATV

full-length human ERβ = full-length human ERβ (Homo sapiens, UniProt Q92731); experiment: 3X-ERE luciferase reporter gene assay in HepG2 cells, ERβ; type: cell-based
full-length human ERβ, sequence (Q92731 whole entry): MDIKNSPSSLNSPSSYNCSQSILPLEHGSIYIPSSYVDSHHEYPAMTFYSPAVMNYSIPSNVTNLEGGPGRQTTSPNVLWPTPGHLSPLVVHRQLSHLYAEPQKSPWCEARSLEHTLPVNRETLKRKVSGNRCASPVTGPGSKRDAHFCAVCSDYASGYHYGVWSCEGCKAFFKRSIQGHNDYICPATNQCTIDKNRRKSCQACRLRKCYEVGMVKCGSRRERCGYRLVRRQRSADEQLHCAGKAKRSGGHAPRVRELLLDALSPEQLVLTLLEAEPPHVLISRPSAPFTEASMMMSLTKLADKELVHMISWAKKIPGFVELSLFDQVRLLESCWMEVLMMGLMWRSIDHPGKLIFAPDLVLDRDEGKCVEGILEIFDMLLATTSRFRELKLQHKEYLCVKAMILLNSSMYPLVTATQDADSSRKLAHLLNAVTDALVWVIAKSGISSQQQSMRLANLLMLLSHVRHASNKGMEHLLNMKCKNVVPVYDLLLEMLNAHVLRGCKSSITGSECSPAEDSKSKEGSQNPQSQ

| EC50 (full-length human ERβ) | Compound | also measured |
| --- | --- | --- |
| > 10 µM | Cc1cc(C2=C(c3ccc(O)c(C)c3)[C@H]3[C@@H](S(=O)(=O)Oc4ccccc4)C[C@@H]2[S+]3[O-])ccc1O (relative stereo) [Compound 12a] |  |
| > 10 µM | COc1ccc(OS(=O)(=O)[C@H]2C[C@H]3C(c4ccc(O)c(C)c4)=C(c4ccc(O)c(C)c4)[C@@H]2[S+]3[O-])cc1 (relative stereo) [Compound 12b] |  |
| > 10 µM | Cc1cc(C2=C(c3ccc(O)c(C)c3)[C@H]3[C@@H](S(=O)(=O)Oc4ccccc4F)C[C@@H]2[S+]3[O-])ccc1O (relative stereo) [Compound 12c] |  |
| > 10 µM | Cc1cc(C2=C(c3ccc(O)c(C)c3)[C@H]3[C@@H](S(=O)(=O)Oc4ccccc4Cl)C[C@@H]2[S+]3[O-])ccc1O (relative stereo) [Compound 12d] |  |
| > 10 µM | Cc1cc(C2=C(c3ccc(O)c(C)c3)[C@H]3[C@@H](S(=O)(=O)Oc4ccccc4Br)C[C@@H]2[S+]3[O-])ccc1O (relative stereo) [Compound 12e] |  |
| > 10 µM | Cc1cc(C2=C(c3ccc(O)c(C)c3)[C@H]3[C@@H](S(=O)(=O)Oc4cccc5ccccc45)C[C@@H]2[S+]3[O-])ccc1O (relative stereo) [Compound 12f] |  |
| > 10 µM | CCOC(=O)[C@@H]1[C@H](C(=O)OCC)[C@@H]2C(c3ccc(O)c(C)c3)=C(c3ccc(O)c(C)c3)[C@H]1[S+]2[O-] (relative stereo) [Compound 12i] | EC50 (full-length human ERα): > 10 µM |

The remaining lines, values behind:

| Compound | EC50 (full-length human ERβ) | also measured |
| --- | --- | --- |
| O=S(=O)(Oc1ccccc1)[C@H]1C[C@H]2C(c3ccc(O)cc3)=C(c3ccc(O)cc3)[C@@H]1[S+]2[O-] (relative stereo) [Compound 10a] | > 10 µM | ERα functional profile (in words) (full-length human ERα): lacks ERα antagonist activity; ERβ agonist activity (in words) (full-length human ERβ): do not activate ERβ |
| COc1ccc(OS(=O)(=O)[C@H]2C[C@H]3C(c4ccc(O)cc4)=C(c4ccc(O)cc4)[C@@H]2[S+]3[O-])cc1 (relative stereo) [Compound 10b] | > 10 µM | EC50 (full-length human ERα): > 10 µM |
| O=S(=O)(Oc1ccc(O)cc1)[C@H]1C[C@H]2C(c3ccc(O)cc3)=C(c3ccc(O)cc3)[C@@H]1[S+]2[O-] (relative stereo) [Compound 10c] | > 10 µM |  |
| CCOC(=O)[C@@H]1[C@H](C(=O)OCC)[C@@H]2C(c3ccc(O)cc3)=C(c3ccc(O)cc3)[C@H]1[S+]2[O-] (relative stereo) [Compound 10e] | > 10 µM | EC50 (full-length human ERα): > 10 µM |
| COc1ccc(OS(=O)(=O)[C@H]2C[C@H]3C(c4ccc(O)cc4C)=C(c4ccc(O)cc4C)[C@@H]2[S+]3[O-])cc1 (relative stereo) [Compound 11b] | > 10 µM |  |
| Cc1cc(O)ccc1C1=C(c2ccc(O)cc2C)[C@H]2[C@@H](S(=O)(=O)Oc3ccccc3F)C[C@@H]1[S+]2[O-] (relative stereo) [Compound 11c] | > 10 µM |  |
| Cc1cc(O)ccc1C1=C(c2ccc(O)cc2C)[C@H]2[C@@H](S(=O)(=O)Oc3ccccc3Br)C[C@@H]1[S+]2[O-] (relative stereo) [Compound 11e] | > 10 µM |  |
| Cc1cc(O)ccc1C1=C(c2ccc(O)cc2C)[C@H]2[C@@H](S(=O)(=O)Oc3ccc(F)cc3)C[C@@H]1[S+]2[O-] (relative stereo) [Compound 11f] | > 10 µM |  |
| Cc1cc(O)ccc1C1=C(c2ccc(O)cc2C)[C@H]2[C@@H](S(=O)(=O)Oc3ccc(Cl)cc3)C[C@@H]1[S+]2[O-] (relative stereo) [Compound 11g] | > 10 µM |  |
| Cc1cc(O)ccc1C1=C(c2ccc(O)cc2C)[C@H]2[C@@H](S(=O)(=O)Oc3cccc4ccccc34)C[C@@H]1[S+]2[O-] (relative stereo) [Compound 11j] | > 10 µM |  |
| O=S(=O)(Oc1ccc(O)cc1)[C@H]1C[C@H]2C(c3ccccc3)=C(c3ccccc3)[C@@H]1[S+]2[O-] (relative stereo) [Compound 13] | > 10 µM | EC50 (full-length human ERα): > 10 µM |
| Cc1ccc(C2=C(c3ccc(C)cc3)[C@H]3[C@@H](S(=O)(=O)Oc4ccc(O)cc4)C[C@@H]2[S+]3[O-])cc1 (relative stereo) [Compound 14] | > 10 µM |  |
